This note sets out measurements from paper PMC11039730, “In situ captured antibacterial action of membrane-incising peptide lamellae” (Nature Communications, 2024).

Values after ≈ are worked out from the molar mass of the structure shown. Like-named read-outs stand apart in the source and are kept apart here.

In data set [1] the test system is BL21 DE3 Escherichia coli strain. The class given is cell-based. Here is the method: To investigate the antimicrobial effect of lamellin-2K and lamellin-3K, we used the BL21 DE3 Escherichia coli strain with chromosomal resistance to chloramphenicol. The inoculum was grown overnight in the presence of 30 μM chloramphenicol. 0.5 mL of this inoculum was diluted into 50 mL fresh LB medium and grown till the optical density at 600 nm reached 0.5−0.6 indicating an exponential growth phase. Cells were then centrifuged at 3220 g at 4 °C for 20 min, washed twice in the assay medium (MQ water, 10 mM PBS, or 0.15 mM NaCl), then resuspended in 5 mL of the same medium. 10 μL cell suspension was diluted with the peptide solution to a final concentration of 250 μM, 125 μM, 60 μM, 30 μM, 10 μM, 5 μM, 1 μM and 0 μM (control) in 100 μl volume and incubated for 2 h in sterile, low-bind, U-bottom 96-well microplates (Greiner Bio-One, Hungary) with oxygen penetrating lid at 37 °C, at continuous shaking in a BioTek Synergy Mx plate reader. Aliquots from the wells were taken for the quantification of bacterial viability on LB agar plates after incubation at 37 °C for 16 h to obtain CFU/mL data. Treatments were performed in three biological replicates, each of which in three technical replicates.
Supplementary Figure 26: Antibacterial activity of 2K and 3K in the presence and absence of phosphate ions. a) Growth inhibition curves. Exponentially growing E. coli BL21 shaker cultures were exposed to the peptides at 37 °C in various media for 120 min. Treatments were performed in three biological replicates, each of which in three technical replicates. Data represent mean and error bars represent SEM. Data points are connected to guide the eye. b) Viability curves calculated from growth inhibition data in (a). Smooth lines are sigmoid fits to […]
Supplementary Table 6: Antimicrobial activity of 2K and 3K in various media. […]
* IC values are calculated from sigmoid fits to the viability vs. log(c) data points.
All errors are standard errors. […]

Data set [2] can be described thus: ANS binding fluorescence (assembly formation). The class given is physicochemical. Particulars: 125 μM peptide, 2.5 μM ANS, mean of 3. Here is the method: Fluorescence spectra were recorded using a JASCO FP-8500 spectrofluorometer with an excitation and emission bandwidth of 10 nm and 20 nm, respectively. Three accumulations were measured each time. The 8-anilino-1-naphthalenesulfonic acid (ANS) fluorophore was excited at 388 nm and the emission was recorded from 410 to 600 nm. Binding assays were performed using 125 μM peptide (50 μL) and 2.5 μM ANS. Spectra were corrected for those of the corresponding peptide solutions. page 11: Supplementary Figure 8: ANS binding capacity is higher for 3K and in phosphate media. ANS binding of 2K and 3K (125 μM) were tested in the indicated media using the ANS probe at 2.5 μM. The emission intensities at the maxima were read, and values were normalized for that of unbound ANS. Gray line highlights the reference signal of free ANS. In all tested media, higher ANS binding was detected for 3K over 2K. […] Error bars represent the standard deviation of the mean for three independent experiment sets. 11 (1 picture or pasted object on this page, not shown here)

A further data set in a line: physchem. The class given is physicochemical. The conditions noted are these: aqueous buffer. Here is the method: For assignment purposes, appropriate amounts of lyophilized solid lamellin-2K (or lamellin-3K, respectively) were dissolved in H2O to prepare ~1 mM solutions, followed by 15 min sonication and addition of 10% D2O. For monitoring the effects of different solvents, the lyophilized lamellin-2K and lamellin-3K were dissolved in PBS, sonicated for 30 min, further on 10% D2O was added. For 2K, the concentration of the lamellin was ~250 μM and the solution contained PBS. […] After each addition, the solution was sonicated for 30 min. All samples were measured at 298 K. […]
Supplementary Figure 7: a) and b) Overlay of 1D 1H spectra in water (c = 1 mM, dark colour) and in PBS (light colour) for 2K (green) and 3K (blue), respectively. Concentration in PBS was ~ 250 µM for 2K and ~ 20 µM for 3K. c) and d) Regions of overlaid 1H-1H TOCSY (green) and 1H-1H ROESY (red) for 2K, indicating sequential connectivities. e) Variation of the 3K concentration during PBS titration determined from the integration of leucine […]

Data set [3] concerns MonoMac 6 human monocytic cells. The class given is cell-based. Particulars: 2 h, AlamarBlue, mean ± SEM, n = 4. Here is the method: To evaluate the cytotoxicity of the compounds, AlamarBlue viability assay was performed on MonoMac 6 human monocytic cells (DSMZ no.: ACC 124, Braunschweig, Germany). […] Cells were maintained as an adherent culture in RPMI-1640 media (Lonza, Basel), supplemented with 10% FCS, L-glutamine (2 mM) and penicillin/streptomycin (50 IU/mL and 50 μg/mL) at 37 °C in a humidified atmosphere containing 5% CO2. On the day of the experiment, cells were washed twice with serum-free RPMI or with TRIS-HCl buffer (0.1 M, pH = 7.4) and plated in 96-well flat-bottom tissue culture plates (Sarstedt) (20,000 cells). 250 μM of the lamellin-3K was dissolved and serially diluted (125 μM, 62.5 μM, 31.25 μM, 15.63 μM, 7.81 μM, 3.91 μM, 1.95 μM) in the corresponding assay medium and added to the cells. The final concentration range was between 1.95 and 250 μM and the final volume was 100 μL. […] Following a 2 h of incubation, the fluorescence was measured at λEx = 530/30 and λEm = 610/10 nm using a Synergy H4 multi-mode microplate reader (BioTek). The percent of viability was calculated compared to untreated control wells. […] IC50 values were calculated from the dose-response curves, after fitting with sigmoidal funcion using the GraphPad Prism software package. […]
parallel experiments and error bars represent SEM. The viability percentage was calculated relative to the untreated […]
On the technique in general: The colour change of resazurin is a common sign of viable cells or microbes.

Where [4] appears, read: 10 mM PBS, 2 h at 37 °C, CFU on LB agar, sigmoid fit, ± standard error, 3 biological replicates.
Setting [5] is: NaCl (0.15 mM [sic] NaCl), 2 h at 37 °C, CFU on LB agar, sigmoid fit, ± standard error, 3 biological replicates.

Turning to `CCCC(=O)N[C@H](CC(=O)N[C@@H](CC(=O)N[C@@H](CCCCN)CC(=O)N[C@@H](CC(=O)N[C@@H](CCCCN)CC(=O)N[C@@H](CC(N)=O)CC(C)C)CC(C)C)CC(C)C)CC(C)C` [2K], the IC20 (in general, the concentration at which the effect reaches the 20% level) in data set [1] (setting [4]) amounted to 46.1 ± 4.07 µM; in data set [1] (MQ water, 2 h at 37 °C, CFU on LB agar, sigmoid fit, ± standard error, 3 biological replicates), 7.06 ± 0.343 µM; in data set [1] (setting [5]), 54 ± 12.2 µM. Also, the IC80 (in general, the concentration needed for an effect of 80%) stood at 77.7 ± 3.93 µM in data set [1] (setting [4]); 11.2 ± 0.373 µM in data set [1] (MQ water, 2 h at 37 °C, CFU on LB agar, sigmoid fit to viability vs log(c), ± standard error, 3 biological replicates); 74.2 ± 10.8 µM in data set [1] (setting [5]). Further, the “ANS fluorescence, Mean” value turned out to be 1.52 arb. units in data set [2] (H2O), 1.24 arb. units in data set [2] (NaCl), 5.15 arb. units in data set [2] (PBS) and 11.66 arb. units in data set [2] (phosphate).
With `CCCC(=O)N[C@H](CC(=O)N[C@@H](CC(=O)N[C@@H](CCCCN)CC(=O)N[C@@H](CC(=O)N[C@@H](CCCCN)CC(=O)N[C@@H](CC(=O)N[C@@H](CCCCN)CC(=O)N[C@@H](CC(N)=O)CC(C)C)CC(C)C)CC(C)C)CC(C)C)CC(C)C` [3K], the IC20 in data set [1] (setting [4]) stood at 9.27 ± 1.45 µM; in data set [1] (setting [5]), 4.22 ± 0.82 µM. In addition, the figures for the IC80 in data set [1] (setting [4]) and in data set [1] (setting [5]) were 14.6 ± 1.46 µM and 7 ± 1.02 µM, respectively. In addition, the IC50 – broadly, the concentration that inhibits the measured activity by half – in data set [1] (10 mM PBS, 2 h at 37 °C, CFU on LB agar, sigmoid fit, ± standard error, 3 biological replicates, read-out: IC50) came to 11.6 ± 1.5 µM; in data set [1] (BL21, 2 h) it was 5.44 ± 0.91 µM; in data set [1] (MQ water (phosphate-free), 2 h at 37 °C, CFU on LB agar, sigmoid fit, ± standard error, 3 biological replicates, read-out: IC50), 1.24 µM; in data set [3] (RPMI (phosphate-containing, 5.6 mM Na2HPO4)), 126 ± 7.1 µM; in data set [3] (Tris-HCl (phosphate-free, 0.1 M, pH 7.4)) it was 112 ± 8.4 µM. The “ANS fluorescence, Mean” value in data set [2] (H2O) was 3.21 arb. units; in data set [2] (NaCl), 7.78 arb. units; in data set [2] (PBS) it was 14.27 arb. units; in data set [2] (phosphate), 19.27 arb. units. In the data set “physchem”, the solubility (thermodynamic) (commonly solubility found after equilibrating the solid with the medium) at 30 min is about 20 µM (≈ 23 µg/mL).
